{"source": "paper PMC10872723", "about": "(Journal of medicinal chemistry, 2023)", "molecular_target": "WDR5 K296R (Homo sapiens, UniProt P61964, K296R)", "experiment": "Immunoblot of WDR5 K296R mutant degradation in HEK293T cells", "type": "cell-based", "settings": "HEK293T cells overexpressing K296R (Dox), indicated concentrations, 3 days", "data": [{"smiles": "Cc1ncsc1-c1ccc([C@H](C)NC(=O)[C@@H]2C[C@@H](O)CN2C(=O)[C@@H](NC(=O)CNC(=O)c2ccc(F)c(-c3ccc(N4C[C@@H](C)N(C)[C@@H](C)C4)c(NC(=O)c4c[nH]c(=O)cc4C(F)(F)F)c3)c2)C(C)(C)C)cc1", "note": "[MS67]", "values": [{"measurement": "Degradation of WDR5 K296R mutant", "value": "resistant to the MS67 treatment"}]}]}
